The structures appear in SMILES notation. In brackets after ≈: the same amount, converted by molar mass.

These results are taken from ChEMBL document CHEMBL1150703, “Plants as sources of antimalarial drugs, Part 4: Activity of Brucea javanica fruits against chloroquine-resistant Plasmodium falciparum in vitro and against Plasmodium berghei in vivo” (J Nat Prod, 1987).

Series [1] concerns Plasmodium falciparum. As to the kind of experiment: Antimalarial activity against multidrug-resistant Plasmodium falciparum K1 infected human erythrocytes assessed by [3H]hypoxanthine uptake. Type of series: functional, organism-based.
A short description of series [2]: (§1) Toxicity in Plasmodium berghei N-infected TSW mice (Mus musculus) assessed as mortality before day 5 at 9 mg/kg, perorally administered 3 hrs after infection daily for 4 consecutive days. Also on record: dose 9 mg/kg, route oral. As to conditions: TSW, in vivo, po, read-out: Activity. It counts as organism-based.
Series [3] relates to Plasmodium berghei. Nature of the series: Antimalarial activity as reduced parasitaemia at day 4 against Plasmodium berghei N infected TSW mice (Mus musculus) perorally dosed 3 hrs post infection then daily. The settings on record: po. Type of series: functional.
The subject of series [4] is Plasmodium berghei. Nature of the series: Antimalarial activity as reduced parasitaemia at day 4 against Plasmodium berghei N infected TSW mice (Mus musculus) at 3 mg/kg peroral dose 3 hrs post infection then daily. It counts as functional. As to conditions: route oral.
For series [5], the system named is Plasmodium falciparum. Nature of the series: Antimalarial activity against multidrug-resistant Plasmodium falciparum K1 in human erythrocytes as inhibition of [3H]hypoxanthine uptake. Type of series: functional, organism-based.
For series [6], the system named is Mus musculus. As to the kind of experiment: Toxicity in Plasmodium berghei N-infected TSW mice (Mus musculus) assessed as toxic deaths before day 5 at 3 mg/kg, perorally administered 3 hrs after infection daily for 4 consecutive days. Also noted: dose 3 mg/kg, route oral. Type of series: organism-based. The settings on record: in vivo, po.
The test system of series [7] is Plasmodium berghei. Nature of the series: Antimalarial activity as reduced parasitaemia at day 4 against Plasmodium berghei N infected TSW mice (Mus musculus) at 9 mg/kg perorally dosed 3 hrs post infection then daily. Type of series: functional. The settings on record: route oral.
Series [8] concerns Mus musculus. The description is as §1. Type of series: organism-based. Also noted: dose 9 mg/kg, route oral. As to conditions: in vivo, po, 3 h.

Take `COC(=O)[C@]12OC[C@]34[C@H]([C@@H](O)[C@@H]1O)[C@@]1(C)CC(=O)C(O)=C(C)[C@@H]1C[C@H]3OC(=O)[C@H](OC(=O)/C=C(\C)C(C)(C)OC(C)=O)[C@@H]24` [BRUCEANTINOL]: half-maximal inhibition in the series with Plasmodium falciparum [1] (IC50) required 0.002 µg/mL (≈ 0.0033 µM).

Take `COC(=O)[C@]12OC[C@]34[C@H]([C@@H](O)[C@@H]1O)[C@@]1(C)CC(=O)C(O[C@@H]5O[C@H](CO)[C@@H](O)[C@H](O)[C@H]5O)=C(C)[C@@H]1C[C@H]3OC(=O)[C@H](OC(C)=O)[C@@H]24` [YADANZIOSIDE I]: the half-inhibitory concentration (IC50) in the series with Plasmodium falciparum [1] was 22 µg/mL (≈ 34.3 µM).

As for `COC(=O)[C@@]12OC[C@]34[C@H]([C@@H](O)[C@@H]1O)[C@@]1(C)CC(=O)C(O)=C(C)[C@@H]1C[C@H]3OC(=O)[C@H](OC(=O)/C=C(\C)C(C)C)[C@@H]24` [BRUCEANTIN], half-maximal inhibition in the series with Plasmodium falciparum [1] (IC50) was put at 0.0008 µg/mL (≈ 0.00146 µM).

With `COC(=O)[C@@]12OC[C@]34[C@H]([C@@H](O)[C@@H]1O)[C@@]1(C)CC(=O)C(O)=C(C)[C@@H]1C[C@H]3OC(=O)[C@H](OC(C)=O)[C@@H]24` [BRUCEINE B], in series [2], the mortality at 3 h is 100%. For the same molecule, in the series with Plasmodium falciparum [1], it took 0.011 µg/mL (≈ 0.0229 µM) to reach half-maximal inhibition (IC50). Besides, in the series with Plasmodium berghei [3], the ED50 stood at 0.9 mg/kg/day and the ED90 came out at 2.82 mg/kg/day. The same molecule registered an inhibition in vivo at 3 mg/kg in the series on Plasmodium berghei [4] of 95%.

On to `COC(=O)[C@]12OC[C@]34[C@H]([C@@H](O)[C@@H]1O)[C@@]1(C)C=C(O[C@@H]5O[C@H](CO)[C@@H](O)[C@H](O)[C@H]5O)C(=O)[C@@H](C)[C@@H]1C[C@H]3OC(=O)[C@H](OC(C)=O)[C@@H]24` [YADANZIOSIDE F], for which it took 5 µg/mL (≈ 7.78 µM) to reach half-maximal inhibition in the series on Plasmodium falciparum [5] (IC50).

In the series with Plasmodium falciparum [1], `COC(=O)[C@]12OC[C@@]34[C@@H](CC5=C(C)C(=O)C(O)=C[C@]5(C)[C@H]3[C@@H](O)[C@@H]1O)OC(=O)[C@H](OC(=O)CC(C)C)[C@@H]24` [DEHYDROBRUCEINE A] gave a half-maximal inhibitory concentration (IC50) of 0.046 µg/mL (≈ 0.0884 µM).

Take `CC1=CC(=O)[C@@H](O)[C@]2(C)[C@H]3[C@@H](O)[C@H](O)[C@]4(C)OC[C@@]35[C@@H](C[C@@H]12)OC(=O)[C@H](O)[C@]54O` [BRUCEINE D]: in the series on Mus musculus [6], the Activity result is “Non-toxic”. In the series with Plasmodium falciparum [1], this molecule came in with an IC50 of 0.015 µg/mL (≈ 0.0365 µM). In the series on Plasmodium berghei [3], the ED50 was 2.79 mg/kg/day and the ED90 was 8.19 mg/kg/day. In the series with Plasmodium berghei [4], this molecule came in with an inhibition in vivo at 3 mg/kg of 50%.

For the molecule `COC(=O)[C@@]12OC[C@]34[C@H]([C@@H](O)[C@@H]1O)[C@@]1(C)CC(=O)C(O)=C(C)[C@@H]1C[C@H]3OC(=O)[C@H](OC(=O)CC(C)C)[C@@H]24` [BRUCEINE A], 9 mg/kg produced 72% inhibition in vivo in the series with Plasmodium berghei [7]. This molecule also registered an IC50 in the series with Plasmodium falciparum [1] of 0.011 µg/mL (≈ 0.0211 µM). Also, in the series with Plasmodium berghei [3], the ED50 was 3.36 mg/kg/day and the ED90 is 26.7 mg/kg/day.

Regarding `COC(=O)[C@]12OC[C@]34[C@H]([C@@H](O)[C@@H]1O)[C@@]1(C)CC(=O)C(O)=C(C)[C@@H]1C[C@H]3OC(=O)[C@H](OC(=O)C=C(C)C)[C@@H]24` [BRUSATOL], in the series with Plasmodium falciparum [1], it took 0.003 µg/mL (≈ 0.00576 µM) to reach half-maximal inhibition (IC50). In the series on Plasmodium berghei [3], the ED50 is 1.27 mg/kg/day and the ED90 turned out to be 3.03 mg/kg/day. In addition, in the series on Plasmodium berghei [4], testing at 3 mg/kg gave an inhibition in vivo of 98%.

As to `COC(=O)[C@]12OC[C@]34[C@H]([C@@H](O)[C@@H]1O)[C@@]1(C)CC(=O)C(O)=C(C)[C@@H]1C[C@H]3OC(=O)[C@H](OC(=O)/C=C(\C)C(C)(C)O)[C@@H]24` [BRUCEINE C], in the series with Mus musculus [8], the Activity entry is “Toxic”. In the series with Plasmodium falciparum [1], this molecule had an IC50 of 0.005 µg/mL (≈ 0.00886 µM). The molecule also returned an inhibition in vivo at 3 mg/kg in the series with Plasmodium berghei [4] of 40%.

In the series on Plasmodium falciparum [1], `CC1=CC(=O)[C@@H](O)[C@]2(C)[C@H]3[C@@H](O)[C@H](O)[C@]4(CO)OC[C@@]35[C@@H](C[C@@H]12)OC(=O)[C@H](O)[C@]54O` [YADANZIOLIDE A] came in with an IC50 of 0.031 µg/mL (≈ 0.0727 µM).
